Results: ChEMBL document CHEMBL4033668, “Inhibitors of cytochrome P450 (CYP) 1B1” (Eur J Med Chem, 2017)

Key:
Cytochrome P450 1A1 [1] = biological target: T1, Cytochrome P450 1A1 (Homo sapiens, UniProt P04798); assay: Competitive inhibition of […] CYP1A1 expressed in supersomes coexpressing NADPH-CYP reductase using 7-Ethoxyresorufin as substrate measured every 5 mins for 30 mins in presence of NADPH by fluorescence assay; format: ADME; conditions: read-out: Ki
T1 sequence (P04798 whole entry): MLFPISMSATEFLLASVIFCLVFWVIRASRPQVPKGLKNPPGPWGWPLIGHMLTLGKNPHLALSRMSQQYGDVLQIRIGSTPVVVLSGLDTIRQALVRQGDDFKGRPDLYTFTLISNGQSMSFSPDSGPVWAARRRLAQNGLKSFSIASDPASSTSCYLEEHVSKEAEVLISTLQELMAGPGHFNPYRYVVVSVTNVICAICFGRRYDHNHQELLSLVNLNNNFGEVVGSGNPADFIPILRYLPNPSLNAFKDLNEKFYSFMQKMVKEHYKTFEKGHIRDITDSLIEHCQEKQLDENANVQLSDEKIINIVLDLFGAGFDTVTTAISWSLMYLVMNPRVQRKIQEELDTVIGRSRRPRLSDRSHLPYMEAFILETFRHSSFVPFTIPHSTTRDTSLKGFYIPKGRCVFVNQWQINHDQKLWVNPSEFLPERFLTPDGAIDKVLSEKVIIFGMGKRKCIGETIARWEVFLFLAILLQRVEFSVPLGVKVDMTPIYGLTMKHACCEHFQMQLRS

Cytochrome P450 1A2 [2] = biological target: T2, Cytochrome P450 1A2 (Homo sapiens, UniProt P05177); assay: Competitive inhibition of […] CYP1A2 expressed in supersomes coexpressing NADPH-CYP reductase using 7-Ethoxyresorufin as substrate measured every 5 mins for 30 mins in presence of NADPH by fluorescence assay; format: ADME
T2 sequence (P05177 whole entry): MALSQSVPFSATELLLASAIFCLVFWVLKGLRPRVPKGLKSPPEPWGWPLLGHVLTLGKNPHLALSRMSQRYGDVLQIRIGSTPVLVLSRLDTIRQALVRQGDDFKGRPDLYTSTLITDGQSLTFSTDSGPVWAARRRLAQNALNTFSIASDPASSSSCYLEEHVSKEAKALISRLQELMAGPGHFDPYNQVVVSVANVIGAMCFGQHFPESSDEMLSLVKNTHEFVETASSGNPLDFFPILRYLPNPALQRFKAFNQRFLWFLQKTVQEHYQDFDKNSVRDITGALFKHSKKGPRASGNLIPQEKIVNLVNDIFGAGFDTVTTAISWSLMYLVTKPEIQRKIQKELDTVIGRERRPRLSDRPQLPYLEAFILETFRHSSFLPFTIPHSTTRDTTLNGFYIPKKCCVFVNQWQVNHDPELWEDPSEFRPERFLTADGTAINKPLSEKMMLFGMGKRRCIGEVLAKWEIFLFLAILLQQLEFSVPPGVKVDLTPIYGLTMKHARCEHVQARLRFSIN

Cytochrome P450 1B1 [3] = biological target: T3, Cytochrome P450 1B1 (Homo sapiens, UniProt Q16678); assay: Competitive inhibition of […] CYP1B1 expressed in supersomes coexpressing NADPH-CYP reductase using 7-Ethoxyresorufin as substrate measured every 5 mins for 30 mins in presence of NADPH by fluorescence assay
T3 sequence (Q16678 whole entry): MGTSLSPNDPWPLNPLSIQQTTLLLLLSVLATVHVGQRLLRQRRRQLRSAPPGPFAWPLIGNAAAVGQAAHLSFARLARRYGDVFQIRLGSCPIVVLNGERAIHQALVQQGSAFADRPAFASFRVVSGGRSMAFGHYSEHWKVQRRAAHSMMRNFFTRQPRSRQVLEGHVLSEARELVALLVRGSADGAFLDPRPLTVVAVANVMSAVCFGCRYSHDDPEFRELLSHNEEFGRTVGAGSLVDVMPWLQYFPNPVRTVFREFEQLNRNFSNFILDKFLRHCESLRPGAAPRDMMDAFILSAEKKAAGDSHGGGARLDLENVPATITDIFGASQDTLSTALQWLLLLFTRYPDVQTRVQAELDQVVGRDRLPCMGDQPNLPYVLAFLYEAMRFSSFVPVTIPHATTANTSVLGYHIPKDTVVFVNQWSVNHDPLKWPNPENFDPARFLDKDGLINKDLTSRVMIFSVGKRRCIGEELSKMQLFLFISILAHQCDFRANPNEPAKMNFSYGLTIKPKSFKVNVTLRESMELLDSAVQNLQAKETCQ

Cytochrome P450 1B1 [4] = biological target: T3, Cytochrome P450 1B1; assay: Inhibition of recombinant human CYP1B1 expressed in supersomes using ethoxyresorufin as substrate after 20 mins in presence of NADPH by fluorescence assay
[5] = Competitive inhibition of […] CYP1 expressed in supersomes coexpressing NADPH-CYP reductase using 7-Ethoxyresorufin as substrate measured every 5 mins for 30 mins in presence of NADPH by fluorescence assay; format: ADME
Cytochrome P450 1A1 [6] = biological target: T1, Cytochrome P450 1A1; assay: Mixed type inhibition of human hepatic microsomes CYP1A1 expressed in supersomes coexpressing NADPH-cytochrome P450 reductase using 7-Ethoxyresorufin as substrate measured every 30 secs for 3 mins in presence of NADPH by spectrofluorometric analysis; format: ADME
Cytochrome P450 1B1 [7] = biological target: T3, Cytochrome P450 1B1; assay: Mixed type inhibition of human hepatic microsomes CYP1B1 expressed in supersomes coexpressing NADPH-cytochrome P450 reductase using 7-Ethoxyresorufin as substrate measured every 30 secs for 3 mins in presence of NADPH by spectrofluorometric analysis
Cytochrome P450 1B1 [8] = biological target: T3, Cytochrome P450 1B1; assay: Inhibition of CYP1B1 in TCDD-exposed human MCF-7 cells using ethoxyresorufin as substrate after 20 mins in presence of NADPH by Lineweaver-Burk linear regression plot analysis
Cytochrome P450 1B1 [9] = biological target: T3, Cytochrome P450 1B1; assay: Inhibition of CYP1B1 in TCDD-exposed human MCF-7 cells using ethoxyresorufin as substrate after 20 mins in presence of NADPH by spectrofluorimetric analysis
Cytochrome P450 1A1 [10] = biological target: T1, Cytochrome P450 1A1; assay: Inhibition of CYP1A1 in TCDD-exposed human MCF-7 cells using ethoxyresorufin as substrate after 20 mins in presence of NADPH by spectrofluorimetric analysis; format: ADME
[11] = Selectivity ratio of IC50 for CYP1A1 in TCDD-exposed human MCF-7 cells to IC50 for CYP1B1 in TCDD-exposed human MCF-7 cells
Cytochrome P450 1A2 [12] = biological target: T2, Cytochrome P450 1A2; assay: Inhibition of recombinant human CYP1A2 expressed in Escherichia coli DH5alpha using ethoxyresorufin as substrate preincubated for 3 mins followed by NADPH addition measured after 10 mins by spectrofluorometric assay; format: ADME

With CCCCCc1cc(O)c2c(c1)OC(C)(C)c1ccc(C)cc1-2 [CANNABINOL] the Ki (Cytochrome P450 1A1 [1]) was 541 nM, the Ki (Cytochrome P450 1A2 [2]) was 79 nM and the Ki (Cytochrome P450 1B1 [3]) was 148 nM.
C=C(C)C1CC=C(CO)CC1 (configuration not stated) showed a Ki (Cytochrome P450 1B1 [4]) of 2000 nM.
Molecule CCCCCc1cc(O)c2c(c1)OC(C)(C)[C@@H]1CCC(C)=C[C@@H]21 [DRONABINOL] has a Ki [5] of 2470 to 7540 nM.
For COc1ccc2[nH]cc(CCNC(C)=O)c2c1 [MELATONIN], the Ki (Cytochrome P450 1A1 [6]) was 59000 nM and the Ki (Cytochrome P450 1B1 [7]) was 14000 nM.
Br.Cc1ccc(C(=O)Cn2c3c(sc2=N)CCCC3)cc1 gave a Ki (Cytochrome P450 1B1 [8]) of 4.38 nM, an IC50 (Cytochrome P450 1B1 [9]) of 20.6 nM and an IC50 (Cytochrome P450 1A1 [10]) of 1500 nM. The “Ratio IC50” value [11] was 73.
Molecule COc1cc(/C=C/c2ccc(OC)cc2OC)cc(OC)c1 has an IC50 (Cytochrome P450 1A2 [12]) of 3000 nM.
